From US10125157B2, “Derivatives of oxazaphosphorines that are pre-activated, use and method of preparation” (priority 2010, dated 2018)
Like-named read-outs stand apart in the source and are kept apart here.

Key:
[1] = compared with the active metabolite of IFO; cited from earlier work
[2] = Chemical stability of the 4-methoxy analogue; format: physicochemical; settings: releases isophosphoramide mustard rapidly
[3] = test system: several cell lines; experiment: In vitro cytotoxicity over the panel of cell lines (MTS); settings: all cell lines tested, concentrations between 0.1 and 100 μM
Description: Cytotoxicity of SQ-IFO and SQ-thio-IFO nanoparticles was studied in several cell lines:
• A549: human alveolar basal epithelial cell adenocarcinoma • MCF-7: human breast carcinoma • MCF-7 MDR: multidrug resistant human breast carcinoma • B16F10: mouse melanoma • KB 3.1: human epidermoid carcinoma • M109: mouse lung tumor cells • MiaPaCa-2: human pancreatic carcinoma • UW-479: human pediatric glioma • IGR OV1: human ovarian cancer • SK-N-MC: neuroblastoma, reclassified as Ewing (expression of EWS/Flip-1 oncogene)
The cell lines were maintained in DMEM or RPMI medium supplemented with 10% fetal calf serum and 1% antibiotics (100 U/mL penicillin and 100 μg/mL streptomycin) in an incubator at 37° C. in a humid 5% carbon dioxide atmosphere.
The cells were seeded in 96-well plates (TPP). Seeding was optimized for each line for an incubation time of 72 hours.
A549, MCF-7, B16F10, M109, MiaPaCa-2 cells were seeded at 5·10^3 cells/well. […] cells were seeded at 2·10^3 cells/well, IGR-OV1 cells at 10^4 cells/well and UW479 and SK-N-MC cells at 5·10^4 cells/well.
The compounds SQ-IFO and SQ-thio-IFO were synthesized according to the protocol described above. For each compound, an aqueous suspension of nanoparticles was prepared using the technique described by Fessi, Int. J. Pharm, 1989, 55, R1-R4.
For each compound, different concentrations between 0.1 and 100 μM were tested by serial dilution of a 2 mg/mL stock solution for SQ-IFO and a 10 mg/mL stock solution for SQ-thio-IFO in culture medium.
After 72 hours of incubation, cell viability was determined by observing the reduction of MTS reagent to formazan (CellTiter 96 AQueous One Solution kit, Promega). 20 μL of a 5 mg/mL solution of MTS in PBS were added per well. The incubation time of the MTS was optimized for each cell line; the absorbance at 490 nm was then read using a plate reader (EL808, Biotek).
The results are expressed as percentage of untreated cells. The data were treated with Prism 4 software (Graph Pad Software, San Diego). IC50 values were thus calculated for each line. Ifosfamide and squalenol were used as controls.

[4] = test system: RD human pediatric rhabdomyosarcoma model; experiment: In vivo efficacy, human rhabdomyosarcoma xenografted in nude mice; settings: RD xenograft, treated when tumor volume >80 mm^3, preliminary results
Protocol: In vivo cytotoxic efficacy was evaluated first on a model of human rhabdomyosarcoma xenografted in nude mice. The model used is the RD human pediatric rhabdomyosarcoma model. The cells were first amplified in culture and counted. 10·10^6 cells were injected subcutaneously in both flanks of each mouse. After graft uptake, when tumor volume reached >80 mm^3, the mice were treated with IFO-SQ or placebo.

[5] = test system: MiaPaCa-2; experiment: In vitro cytotoxicity, MTS cell viability test, 72 h; format: cell-based; settings: Homo sapiens
Protocol: (§1) The cells were seeded in 96-well plates (TPP).
(§2) J. Pharm, 1989, 55, R1-R4.
(§3) The results are expressed as percentage of untreated cells. […] IC50 values were thus calculated for each line. Ifosfamide and squalenol were used as controls.

[6] = test system: A549; experiment: as above; format: cell-based; settings: Homo sapiens
Protocol: as §1, §2, §3

[7] = test system: KB 3.1; experiment: as above; format: cell-based; settings: Homo sapiens
Protocol: as §1, §2, §3

[8] = test system: B16F10; experiment: as above; format: cell-based; settings: Mus musculus
Protocol: as §1, §2, §3

[9] = test system: MCF-7 MDR; experiment: as above; format: cell-based; settings: Homo sapiens
Protocol: as §1, §2, §3

[10] = test system: MCF-7; experiment: as above; format: cell-based; settings: Homo sapiens
Protocol: as §1, §2, §3

[11] = test system: SK-N-MC (Ewing); experiment: as above; format: cell-based; settings: for IC50: Homo sapiens; for cytotoxic activity (in words): SK-N-MC (Ewing) cells
Protocol: as §1, §2, §3

[12] = Nanoparticle size in aqueous medium; format: physicochemical; settings: for average size of nanoparticles: aqueous suspension prepared by the technique of Fessi, spherical; for size of nanoparticles: self-assembly in an aqueous medium
Description: For example, the most recent and most promising application concerns the attachment of a squalene residue by this method by adding squalenol or squalene-thiol in the presence of BF3ET2O on the phosphoryl-iminium produced from 4-methoxy-MFI (Schemes 7 and 8). The compounds formed, SQ-4-O-MFI and SQ-4-S-MFI, have two interesting properties. The first is that they are pre-activated forms of MFI due to oxidation in position 4 that can release, in a slightly acidic aqueous medium, the alkylating mustard directly without metabolic activation. The second is that they are capable of self-assembly in an aqueous medium in the form of nanoparticles of a size of about 160 nm.
as §2

[13] = test system: M109; experiment: In vitro cytotoxicity, MTS cell viability test, 72 h; format: cell-based, mouse; settings: for cytotoxic activity (in words): M109 cell line; for IC50: Mus musculus
Protocol: as §1, §2, §3

[14] = test system: UW 479 (Glioma); experiment: as above; format: cell-based, human; settings: for IC50: Homo sapiens; for cytotoxic activity (in words): UW 479 (Glioma) cells
Protocol: as §1, §2, §3

[15] = test system: IGR-OV1 (Ovary); experiment: as above; format: cell-based, human; settings: for IC50: Homo sapiens; for cytotoxic activity (in words): IGR-OV1 (Ovary) cells
Protocol: as §1, §2, §3

| Compound | in vitro cytotoxicity (in words) [3] | IC50 ([5]; MIA PaCa-2, 72 h) | IC50 ([6]; A549, 72 h) | IC50 ([7]; KB 3-1, 72 h) | IC50 ([8]; B16-F10, 72 h) | IC50 ([9]; MCF7, 72 h) | IC50 ([10]; MCF7, 72 h) | IC50 ([11]; SK-N-MC, 72 h) | cytotoxic activity (in words) [11] | average size of nanoparticles [12] | size of nanoparticles [12] | cytotoxic activity (in words) [13] | IC50 ([13]; M109, 72 h) | IC50 ([14]; 72 h) | cytotoxic activity (in words) [14] | IC50 ([15]; IGROV-1, 72 h) | cytotoxic activity (in words) [15] | further results |
| --- | --- | --- | --- | --- | --- | --- | --- | --- | --- | --- | --- | --- | --- | --- | --- | --- | --- | --- |
| COC1CCOP(=O)(NCCCl)N1CCCl (stereo not shown) [4-MeO-IFO, 4-methoxy-ifosfamide] |  |  |  |  |  |  |  |  |  |  |  |  |  |  |  |  |  | cytotoxic potency [1]: equivalent to that of the active metabolite of IFO; chemical stability [2]: quite unstable |
| CC(C)=CCC/C(C)=C/CC/C(C)=C/CC/C=C(\C)CC/C=C(\C)CCCOC1CCOP(=O)(NCCCl)N1CCCl (stereo not shown) [Ifosfamide SQ] | high in vitro cytotoxicity | 32.5 µM | 32.5 µM | 50 µM | 73 µM | 78.8 µM | 43.6 µM | > 100 µM | not observed | 182 nm | about 160 nm | not observed | > 100 µM | > 100 µM | not observed | > 100 µM | not observed | tumor volume compared to mice treated with placebo [4]: significant decrease in tumor volume |
| O=P1(NCCCl)OCCCN1CCCl (stereo not shown) [Ifosfamide, reference compound] | did not exhibit significant cytotoxicity |  |  |  |  |  |  |  |  |  |  |  |  |  |  |  |  | IC50 ([5]; MIA PaCa-2, MiaPaCa-2, 72 h incubation, nanoparticle suspension, MTS, read-out: IC50): > 100 µM; IC50 ([6]; A549, 72 h incubation, nanoparticle suspension, MTS, read-out: IC50): > 100 µM; IC50 ([7]; KB 3-1, KB 3.1, 72 h incubation, nanoparticle suspension, MTS, read-out: IC50): > 100 µM; IC50 ([8]; B16-F10, B16F10, 72 h incubation, nanoparticle suspension, MTS, read-out: IC50): > 100 µM; IC50 ([9]; MCF7, MCF-7 MDR, 72 h incubation, nanoparticle suspension, MTS, read-out: IC50): > 100 µM; IC50 ([10]; MCF7, MCF-7, 72 h incubation, nanoparticle suspension, MTS, read-out: IC50): > 100 µM; IC50 ([11]; SK-N-MC (Ewing), 72 h incubation, nanoparticle suspension, MTS, read-out: IC50): > 100 µM; IC50 ([13]; M109, 72 h incubation, nanoparticle suspension, MTS, read-out: IC50): > 100 µM; IC50 ([14]; UW 479 (Glioma), 72 h incubation, nanoparticle suspension, MTS, read-out: IC50): > 100 µM; IC50 ([15]; IGROV-1, IGR-OV1 (Ovary), 72 h incubation, nanoparticle suspension, MTS, read-out: IC50): > 100 µM |
| CC(C)=CCC/C(C)=C/CC/C(C)=C/CC/C=C(\C)CC/C=C(\C)CCC(=O)NCCSC1CCOP(=O)(NCCCl)N1CCCl (stereo not shown) [Ifosfamide-thio-SQ, (2-chloro-ethyl)-[3-(2-chloro-ethyl)-2-oxo-4-mercaptoethylamidosqualen-[1,3,2]oxazaphosphinan-2-yl]-amine] | high in vitro cytotoxicity | 4.4 µM | 5.3 µM | 2.96 µM | 16.9 µM | 80 µM | 10.9 µM | 19 µM | high cytotoxic activity | 182 nm | about 160 nm | high cytotoxic activity | 9.2 µM | 65 µM | high cytotoxic activity | 81 µM | high cytotoxic activity |  |
| tris-nor-squalenol [reference compound] | did not exhibit significant cytotoxicity |  |  |  |  |  |  |  |  |  |  |  |  |  |  |  |  |  |
